This passage reports IC50 results from ChEMBL document CHEMBL1141370, “Biologically active triterpenoid saponins from Ardisia japonica” (J Nat Prod, 2007).

Each structure is given as a SMILES string.

Common to all, as to type: cell-based
The subject of one test is HL-60. Nature of the test: Cytotoxicity against human HL60 cell line by MTT assay.
A short description of test [1]: Cytotoxicity against human KATO3 cell line by MTT assay.
The next test deals with A549. The test is described as follows: Cytotoxicity against human A549 cell line by MTT assay.

`C[C@@H]1O[C@@H](O[C@H]2[C@H](O[C@H]3CO[C@@H](O[C@H]4CC[C@]5(C)[C@H]6CC[C@]78OC[C@@]9(CCC(C)(C)C[C@H]97)[C@H](O)C[C@@]8(C)[C@]6(C)CC[C@H]5C4(C)C)[C@H](O[C@@H]4O[C@H](CO)[C@@H](O)[C@H](O)[C@H]4O)[C@H]3O)O[C@H](CO)[C@@H](O)[C@@H]2O)[C@H](O)[C@H](O)[C@H]1O`: the IC50 in the test with HL-60 came out at 1.9 µM; in test [1] it was 400 nM; in the test on A549 it was 3.7 µM.

In the case of `C[C@@H]1O[C@@H](O[C@H]2[C@H](O[C@H]3CO[C@@H](O[C@H]4CC[C@]5(C)[C@H]6CC[C@]78OC[C@@]9(CC[C@](C)(C=O)C[C@H]97)[C@H](O)C[C@@]8(C)[C@]6(C)CC[C@H]5C4(C)C)[C@H](O[C@@H]4O[C@H](CO)[C@@H](O)[C@H](O)[C@H]4O)[C@H]3O)O[C@H](CO)[C@@H](O)[C@@H]2O)[C@H](O)[C@H](O)[C@H]1O` [ARDISIACRISPIN B], the IC50 in the test on HL-60 was found to be 3.2 µM; in test [1], 1200 nM; with A549, 3.6 µM.

In the case of `C[C@@H]1O[C@@H](O[C@H]2[C@H](O[C@H]3CO[C@@H](O[C@H]4CC[C@]5(C)[C@H]6CC=C7[C@@H]8C[C@@](C)(CO)CC[C@]8(CO)[C@H](O)C[C@@]7(C)[C@]6(C)CC[C@H]5C4(C)C)[C@H](O[C@@H]4O[C@H](CO)[C@@H](O)[C@H](O)[C@H]4O)[C@H]3O)O[C@H](CO)[C@@H](O)[C@@H]2O)[C@H](O)[C@H](O)[C@H]1O` [ARDISIAMAMILLOSEDE C], the concentration for half-maximal inhibition (IC50) with HL-60 is over 100 µM; in test [1] it was over 100000 nM; in the test on A549 it was over 100 µM.

Consider `C[C@@H]1O[C@@H](O[C@H]2[C@H](O[C@H]3CO[C@@H](O[C@H]4CC[C@]5(C)[C@H]6CC[C@]78OC[C@@]9(CC[C@](C)(C(=O)O)C[C@H]97)[C@H](O)C[C@@]8(C)[C@]6(C)CC[C@H]5C4(C)C)[C@H](O[C@@H]4O[C@H](CO)[C@@H](O)[C@H](O)[C@H]4O)[C@H]3O)O[C@H](CO)[C@@H](O)[C@@H]2O)[C@H](O)[C@H](O)[C@H]1O` [ARDISIAMAMILLOSIDE F], for which the figures for the half-maximal inhibitory concentration (IC50) (in the test on HL-60; in test [1]; with A549) were over 100 µM, over 100000 nM and over 100 µM, respectively.

`C[C@@H]1O[C@@H](O[C@H]2[C@H](O[C@H]3CO[C@@H](O[C@H]4CC[C@]5(C)[C@H]6CC[C@]78OC[C@@]9(CC[C@](C)(C=O)C[C@H]97)C(=O)C[C@@]8(C)[C@]6(C)CC[C@H]5C4(C)C)[C@H](O)[C@H]3O)O[C@H](CO)[C@@H](O)[C@@H]2O)[C@H](O)[C@H](O)[C@H]1O` [ARDISIAMAMILLOSIDE H]: the values for the 50% inhibitory concentration (IC50) (in the test with HL-60; in test [1]; in the test with A549) were 30.8 µM, 21500 nM and 37.2 µM, respectively.

For `CC1(C)CC[C@]23CO[C@@]4(CC[C@@H]5[C@@]6(C)CC[C@H](O[C@@H]7OC[C@H](O[C@@H]8O[C@H](CO)[C@@H](O)[C@H](O[C@@H]9O[C@H](CO)[C@@H](O)[C@H](O[C@@H]%10O[C@H](CO)[C@@H](O)[C@H](O)[C@H]%10O)[C@H]9O)[C@H]8O[C@@H]8OC[C@@H](O)[C@H](O)[C@H]8O)[C@H](O)[C@H]7O[C@@H]7O[C@H](CO)[C@@H](O)[C@H](O)[C@H]7O)C(C)(C)[C@@H]6CC[C@@]5(C)[C@]4(C)C[C@H]2O)[C@@H]3C1` [ARDISIANOSIDE B], the 50% inhibitory concentration (IC50) with HL-60 stood at 2.4 µM; in test [1], 300 nM; in the test on A549, 3.1 µM.

With `C[C@@H]1O[C@@H](O[C@H]2[C@H](O[C@H]3CO[C@@H](O[C@H]4CC[C@]5(C)[C@H]6CC[C@]78OC[C@@]9(CCC(C)(C)C[C@H]97)[C@H](O)C[C@@]8(C)[C@]6(C)CC[C@H]5C4(C)C)[C@H](O)[C@H]3O)O[C@H](CO)[C@@H](O)[C@@H]2O)[C@H](O)[C@H](O)[C@H]1O` [ARDISIANOSIDE C], the IC50 in the test with HL-60 amounted to 2.7 µM; in test [1] it was 1300 nM; in the test with A549, 3.2 µM.

For `CC1(C)CC[C@]23CO[C@@]4(CC[C@@H]5[C@@]6(C)CC[C@H](O[C@@H]7OC[C@H](O[C@@H]8O[C@H](CO)[C@@H](O)[C@H](O)[C@H]8O[C@@H]8OC[C@@H](O)[C@H](O)[C@H]8O)[C@H](O)[C@H]7O)C(C)(C)[C@@H]6CC[C@@]5(C)[C@]4(C)C[C@H]2O)[C@@H]3C1` [ARDISIANOSIDE D], the concentration for half-maximal inhibition (IC50) in the test with HL-60 stood at 3.5 µM; in test [1] it was 1500 nM; in the test with A549 it was 24.2 µM.

Consider `CC1(C)[C@@H](O[C@@H]2OC[C@H](O[C@@H]3O[C@H](CO)[C@@H](O)[C@H](O)[C@H]3O)[C@H](O)[C@H]2O[C@@H]2O[C@H](CO)[C@@H](O)[C@H](O)[C@H]2O)CC[C@]2(C)[C@H]3CC[C@]45OC[C@@]6(CC[C@](C)(CO)C[C@H]64)[C@H](O)C[C@@]5(C)[C@]3(C)CC[C@@H]12` [ARDISIANOSIDE E], for which the IC50 in the test on HL-60 was 3.4 µM; in test [1], 400 nM; with A549, 3.1 µM.

With `CC1(C)[C@@H](O[C@@H]2OC[C@H](O[C@@H]3O[C@H](CO)[C@@H](O)[C@H](O[C@@H]4O[C@H](CO)[C@@H](O)[C@H](O)[C@H]4O)[C@H]3O[C@@H]3OC[C@@H](O)[C@H](O)[C@H]3O)[C@H](O)[C@H]2O[C@@H]2O[C@H](CO)[C@@H](O)[C@H](O)[C@H]2O)CC[C@]2(C)[C@H]3CC[C@]45OC[C@@]6(CC[C@](C)(CO)C[C@H]64)[C@H](O)C[C@@]5(C)[C@]3(C)CC[C@@H]12` [ARDISIANOSIDE F], the results for the half-maximal inhibitory concentration (IC50) (in the test on HL-60; in test [1]; in the test with A549) were over 100 µM, 38300 nM and 36.2 µM, respectively.

With `C[C@@H]1O[C@@H](O[C@H]2[C@H](O[C@H]3CO[C@@H](O[C@H]4CC[C@]5(C)[C@H]6CC[C@]78OC[C@@]9(CC[C@](C)(O)C[C@H]97)[C@H](O)C[C@@]8(C)[C@]6(C)CC[C@H]5C4(C)C)[C@H](O[C@@H]4O[C@H](CO)[C@@H](O)[C@H](O)[C@H]4O)[C@H]3O)O[C@H](CO)[C@@H](O)[C@@H]2O)[C@H](O)[C@H](O)[C@H]1O` [ARDISIANOSIDE G], the results for the concentration for half-maximal inhibition (IC50) (in the test with HL-60; in test [1]; with A549) were over 100 µM, over 100000 nM and over 100 µM, respectively.

As to `CC1(C)CC[C@]23C(=O)O[C@@]4(CC[C@@H]5[C@@]6(C)CC[C@H](O[C@@H]7OC[C@H](O[C@@H]8O[C@H](CO)[C@@H](O)[C@H](O[C@@H]9O[C@H](CO)[C@@H](O[C@@H]%10O[C@H](CO)[C@@H](O)[C@H](O)[C@H]%10O)[C@H](O[C@@H]%10O[C@H](CO)[C@@H](O)[C@H](O)[C@H]%10O)[C@H]9O)[C@H]8O[C@@H]8OC[C@@H](O)[C@H](O)[C@H]8O)[C@H](O)[C@H]7O[C@@H]7O[C@H](CO)[C@@H](O)[C@H](O)[C@H]7O)C(C)(C)[C@@H]6CC[C@@]5(C)[C@]4(C)C[C@H]2O)[C@@H]3C1` [ARDISIANOSIDE H], the IC50 in the test with HL-60 was 28.4 µM; in test [1] it was 8300 nM; with A549, 33.4 µM.

`C[C@@H]1O[C@@H](O[C@H]2[C@H](O[C@H]3CO[C@@H](O[C@H]4CC[C@]5(C)[C@H]6CC[C@]78OC(=O)[C@@]9(CC[C@](C)(CO)C[C@H]97)[C@H](O)C[C@@]8(C)[C@]6(C)CC[C@H]5C4(C)C)[C@H](O[C@@H]4O[C@H](CO)[C@@H](O)[C@H](O)[C@H]4O)[C@H]3O)O[C@H](CO)[C@@H](O)[C@@H]2O)[C@H](O)[C@H](O)[C@H]1O` [ARDISIANOSIDE I]: the half-maximal inhibitory concentration (IC50) in the test with HL-60 was over 100 µM; in test [1] it was over 100000 nM; with A549, over 100 µM.

With `C[C@@H]1O[C@@H](O[C@H]2[C@H](O[C@H]3CO[C@@H](O[C@H]4CC[C@]5(C)[C@H]6CC[C@]78OC(=O)[C@@]9(CC[C@](C)(C=O)C[C@H]97)[C@H](O)C[C@@]8(C)[C@]6(C)CC[C@H]5C4(C)C)[C@H](O[C@@H]4O[C@H](CO)[C@@H](O)[C@H](O)[C@H]4O)[C@H]3O)O[C@H](CO)[C@@H](O)[C@@H]2O)[C@H](O)[C@H](O)[C@H]1O` [ARDISIANOSIDE J], the figures for the half-inhibitory concentration (IC50) (in the test on HL-60; in test [1]; in the test on A549) were 45.6 µM, 33500 nM and 32.9 µM, respectively.

Take `C[C@@H]1O[C@@H](O[C@H]2[C@H](O[C@H]3CO[C@@H](O[C@H]4CC[C@]5(C)[C@H]6CC=C7[C@@H]8C[C@@](C)(CO)CC[C@]8(CO)[C@@H]8O[C@@H]8[C@@]7(C)[C@]6(C)CC[C@H]5C4(C)C)[C@H](O[C@@H]4O[C@H](CO)[C@@H](O)[C@H](O)[C@H]4O)[C@H]3O)O[C@H](CO)[C@@H](O)[C@@H]2O)[C@H](O)[C@H](O)[C@H]1O` [ARDISIANOSIDE K]: the half-maximal inhibitory concentration (IC50) was over 100 µM in the test on HL-60, over 100000 nM in test [1] and over 100 µM with A549.

On to `CC1(C)CC[C@]23CO[C@@]4(CC[C@@H]5[C@@]6(C)CC[C@H](O[C@@H]7OC[C@H](O[C@@H]8O[C@H](CO)[C@@H](O)[C@H](O[C@@H]9O[C@H](CO)[C@@H](O[C@@H]%10O[C@H](CO)[C@@H](O)[C@H](O)[C@H]%10O)[C@H](O[C@@H]%10O[C@H](CO)[C@@H](O)[C@H](O)[C@H]%10O)[C@H]9O)[C@H]8O[C@@H]8OC[C@@H](O)[C@H](O)[C@H]8O)[C@H](O)[C@H]7O[C@@H]7O[C@H](CO)[C@@H](O)[C@H](O)[C@H]7O)C(C)(C)[C@@H]6CC[C@@]5(C)[C@]4(C)C[C@H]2O)[C@@H]3C1` [ARDISIANOSIDES A], for which the IC50 came to 2.7 µM with HL-60, 400 nM in test [1] and 6 µM with A549.

Turning to `C[C@@H]1O[C@@H](O[C@H]2[C@H](O[C@H]3CO[C@@H](O[C@H]4CC[C@]5(C)[C@H]6CC[C@]78OC[C@@]9(CC[C@](C)(CO)C[C@H]97)[C@H](O)C[C@@]8(C)[C@]6(C)CC[C@H]5C4(C)C)[C@H](O[C@@H]4O[C@H](CO)[C@@H](O)[C@H](O)[C@H]4O)[C@H]3O)O[C@H](CO)[C@@H](O)[C@@H]2O)[C@H](O)[C@H](O)[C@H]1O` [ARDISICRENOSIDE A], the figures for the IC50 (in the test with HL-60; in test [1]; in the test on A549) were over 100 µM, 14500 nM and over 100 µM, respectively.

Take `CC1(C)[C@@H](O[C@@H]2OC[C@H](O[C@@H]3O[C@H](CO)[C@@H](O)[C@H](O[C@@H]4O[C@H](CO)[C@@H](O)[C@H](O)[C@H]4O)[C@H]3O[C@@H]3OC[C@@H](O)[C@H](O)[C@H]3O)[C@H](O)[C@H]2O[C@@H]2O[C@H](CO)[C@@H](O)[C@H](O)[C@H]2O)CC[C@]2(C)[C@H]3CC[C@]45OC[C@@]6(CC[C@](C)(C=O)C[C@H]64)[C@H](O)C[C@@]5(C)[C@]3(C)CC[C@@H]12` [CYCLAMIN]: the figures for the half-inhibitory concentration (IC50) (in the test with HL-60; in test [1]; in the test on A549) were 3 µM, 300 nM and 3.3 µM, respectively.
